Source: patent publication US10793566B2, “Bruton's tyrosine kinase inhibitors” (Zibo Biopolar Changsheng Pharmaceutical Co. Ltd., priority 2016, dated 2020)

What was measured:
Btk [1] = target: Btk (Mus musculus (Mouse), UniProt P35991); experiment: Btk occupancy in vivo (PBMCs/splenocytes, PCI-33380 labeling); conditions: Babc/L mice, after 4 hours
Procedure: For analysis of Btk occupancy in Babc/L mice following oral dosing of compounds after 4 hours. Isolating peripheral blood mononuclear cells (PBMCs) with mouse peripheral blood separation kit (Hao Yang Biological Manufacture CO., LTD, Tianjin) were collected from Babc/L mice (1 ml blood from two mice). Spleens were processed to splenocytes followed by 5 min incubation in red blood cell lysing buffer (from mouse peripheral blood separation kit). PBMCs or splenocytes were then PCI-33380-labeled and lysates analyzed by fluorescent gel scanning as described in cellular assays.

Ramos cells = experiment: Calcium flux assay, anti-IgM stimulated Ramos cells; type: cell-based; conditions: Homo sapiens, IgM-induced calcium influx, read-out: Ramos Ca Flux
Procedure: Calcium flux fluorescence-based assays were performed in aFDSS7000EX (Hamamatsu Photonics) fluorometric imaging plate reader according to manufacturer instructions. Compounds to be assayed were dissolved in DMSO, diluted to appropriate concentrations in Ca^2+ buffer ranging from 0 to 10 μM (at a dilution factor of 0.1), added 5 μl (6 X) to each well (the final DMSO concentration was 0.1% in each well). Then 12.5 μL 2× dye loading solution (Fluo-4 NW Calcium Assay Kits, Invitrogen) was added per well of a 384-well plate. Afterwards, actively growing Ramos cells (ATCC) in RPM1640 medium supplemented with 10% FBS (Invitrogen) were washed and re-plated in assay buffer (from Fluo-4 NW Calcium Assay Kits, Invitrogen) to approximately 6.4×10^6/ml (80000 cells/12.5 μL in 384-well plates). The plates were incubated at 37° C. for 30 minutes, then at room temperature for an additional 30 minutes. The plates were now ready to be used in an experiment. Immediately after the transfer and a 10-s recording of baseline fluorescence, the compound treated cells were stimulated with a goat anti-human IgM antibody ([…]; Jackson Immuno Research) and read in a FDSS for 240 seconds. Difference between the signal and that at baseline, designated adjusted relative fluorescence unit, was calculated by using a custom Excel (Microsoft, Redmond, Wash.) template to determine IgM-induced calcium influx and its inhibition by compounds. The table below show the result.

BTK [2] = target: T1, BTK (Homo sapiens (Human), UniProt Q06187); experiment: Btk occupancy in cellular assays (PCI-33380 labeling); type: cell-based; conditions: Jeko-1 cells, 1.5 h pre-incubation, PCI-33380 probe
Procedure: Btk Occupancy in Cellular Assays
For PCI-33380 labeling of human B cells, 10^6 Jeko-1 cells were pre-incubated with compound for 1.5 h before labeling. Then cells were treated with PCI-33380 at 5 μM for 1 h. Washed, lysed in Ripa buffer containing sample reducing agent, and analyzed by SDS/PAGE and fluorescent gel scanning using a Typhoon scanner 9500 (GE Healthcare) (Ex, 532 nm; Em, 555 nm). The gel was then blotted and total Btk levels detected by standard Western blot with Btk antibody (CST).
Target sequence in this assay (Q06187 whole entry): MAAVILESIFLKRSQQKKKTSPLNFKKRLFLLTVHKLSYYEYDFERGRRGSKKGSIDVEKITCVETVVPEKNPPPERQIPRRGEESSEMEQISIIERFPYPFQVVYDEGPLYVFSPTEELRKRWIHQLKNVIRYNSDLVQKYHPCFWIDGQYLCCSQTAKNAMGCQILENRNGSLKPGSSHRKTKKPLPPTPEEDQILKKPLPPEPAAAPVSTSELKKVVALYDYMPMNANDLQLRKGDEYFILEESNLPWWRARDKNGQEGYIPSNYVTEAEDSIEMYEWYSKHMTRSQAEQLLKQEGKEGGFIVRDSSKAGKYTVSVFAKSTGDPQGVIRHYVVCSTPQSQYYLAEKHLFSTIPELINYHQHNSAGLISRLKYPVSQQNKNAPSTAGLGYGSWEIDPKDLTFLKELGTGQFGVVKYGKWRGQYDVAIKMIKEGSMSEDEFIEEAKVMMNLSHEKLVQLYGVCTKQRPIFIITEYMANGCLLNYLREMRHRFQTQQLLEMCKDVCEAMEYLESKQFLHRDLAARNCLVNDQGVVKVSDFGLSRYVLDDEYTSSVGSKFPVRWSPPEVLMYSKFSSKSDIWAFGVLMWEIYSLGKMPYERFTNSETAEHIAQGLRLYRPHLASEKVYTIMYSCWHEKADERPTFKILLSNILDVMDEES

BTK [3] = target: T1, BTK; experiment: Btk kinase assay (HTRF); type: biochemical; conditions: [ATP]=80 μM, BTK=3.4 nM; read-out: BTK Inhibition
Procedure: Btk Kinase Assay and Other Kinases Assay Btk kinase activity was determined using a homogenous time resolved fluorescence (HTRF) methodology. Measurements were performed in a reaction volume of 15 μL using 384-well assay plates. […] Activity was determined by the ratio of the fluorescence at 665 nm to that at 615 nm. For each compound, enzyme activity as measured at various concentrations of compound, Negative control reactions were performed in the absence of inhibitor in two replicates and eight no enzyme controls were used to determine baseline fluorescence levels.
Target sequence in this assay (Q06187 whole entry, species assumed): as the sequence (Q06187 whole entry) above

Chain of Btk (P35991 whole entry): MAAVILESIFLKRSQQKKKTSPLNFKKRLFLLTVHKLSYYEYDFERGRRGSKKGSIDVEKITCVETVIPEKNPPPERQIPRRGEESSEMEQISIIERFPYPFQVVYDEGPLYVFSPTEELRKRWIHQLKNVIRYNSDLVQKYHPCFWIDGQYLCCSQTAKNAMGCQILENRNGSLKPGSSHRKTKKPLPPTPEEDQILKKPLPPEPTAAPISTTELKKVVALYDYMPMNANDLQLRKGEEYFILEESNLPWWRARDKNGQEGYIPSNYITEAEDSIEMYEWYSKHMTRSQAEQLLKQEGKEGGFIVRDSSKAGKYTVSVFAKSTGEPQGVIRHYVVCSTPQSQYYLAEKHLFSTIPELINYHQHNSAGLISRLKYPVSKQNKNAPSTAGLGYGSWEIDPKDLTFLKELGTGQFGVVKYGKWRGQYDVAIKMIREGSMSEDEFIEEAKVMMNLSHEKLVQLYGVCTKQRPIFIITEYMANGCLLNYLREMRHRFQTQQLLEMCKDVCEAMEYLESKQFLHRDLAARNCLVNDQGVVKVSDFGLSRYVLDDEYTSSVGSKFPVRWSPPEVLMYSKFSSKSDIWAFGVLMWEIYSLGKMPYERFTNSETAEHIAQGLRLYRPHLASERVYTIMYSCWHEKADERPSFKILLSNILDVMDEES

Row | Structure (SMILES) | concentration sufficient to fully occupy the active site of Btk (BTK [2]) | also measured
1 | C=CC(=O)N1CCC[C@@H](n2nc(-c3ccc(Oc4cccc(OC)c4Cl)cc3)c3cnccc32)C1 [Example 2, (R)-1-(3-(3-(4-(2-chloro-3-methoxyphenoxy)phenyl)-1H-pyrazolo[4,3-c]pyridin-1-yl)piperidin-1-yl)prop-2-en-1-one] | 100 nM | Btk occupancy in vivo (Btk [1]; 10 mg/kg single oral dose): full occupancy; IC50 (Ramos cells): 10 to 100 nM
2 | C=CC(=O)N1CC[C@@H](n2nc(-c3ccc(Oc4cccc(OC)c4F)cc3)c3cnccc32)C1 [Example 3, (R)-1-(3-(3-(4-(2-fluoro-3-methoxyphenoxy)phenyl)-1H-pyrazolo[4,3-c]pyridin-1-yl)pyrrolidin-1-yl)prop-2-en-1-one] | 50 nM | Btk occupancy in vivo (Btk [1]; 10 mg/kg single oral dose): full occupancy; IC50 (Ramos cells): 10 to 100 nM
3 | C=CC(=O)N1CC[C@@H](n2nc(-c3ccc(Oc4cccc(F)c4Cl)cc3)c3cnccc32)C1 [Example 4, (R)-1-(3-(3-(4-(2-chloro-3-fluorophenoxy)phenyl)-1H-pyrazolo[4,3-c]pyridin-1-yl)pyrrolidin-1-yl)prop-2-en-1-one] | 100 nM | Btk occupancy in vivo (Btk [1]; 10 mg/kg single oral dose): full occupancy; IC50 (Ramos cells): 10 to 100 nM
4 | C=CC(=O)N1CCC[C@@H](n2nc(-c3ccc(Oc4cccc(OC)c4F)cc3)c3cncc(OC)c32)C1 [Example 6, (R)-1-(3-(3-(4-(2-fluoro-3-methoxyphenoxy)phenyl)-7-methoxy-1H-pyrazolo[4,3-c]pyridin-1-yl)piperidin-1-yl)prop-2-en-1-one] | – | IC50 (Ramos cells): 10 to 100 nM
5 | C=CC(=O)N1CCC[C@@H](n2nc(-c3ccc(Oc4cccc(F)c4F)cc3)c3cnccc32)C1 [Example 17, (R)-1-(3-(3-(4-(2,3-difluorophenoxy)phenyl)-1H-pyrazolo[4,3-c]pyridin-1-yl)piperidin-1-yl)prop-2-en-1-one] | 100 nM | –
6 | C=CC(=O)N1CC[C@@H](n2nc3ccncc3c2-c2ccc(Oc3cccc(Cl)c3Cl)cc2)C1 [Example 41, (R)-1-(3-(3-(4-(2,3-dichlorophenoxy)phenyl)-2H-pyrazolo[4,3-c]pyridin-2-yl)pyrrolidin-1-yl)prop-2-en-1-one] | 100 nM | –
7 | C=CC(=O)N1CCC[C@@H](n2nc3ccncc3c2-c2ccc(Oc3cccc(Cl)c3Cl)cc2)C1 [Example 43, (R)-1-(3-(3-(4-(2,3-dichlorophenoxy)phenyl)-2H-pyrazolo[4,3-c]pyridin-2-yl)piperidin-1-yl)prop-2-en-1-one] | 100 nM | –
8 | C=CC(=O)N1CCC[C@@H](n2nc(-c3ccc(Oc4cccc(OC)c4F)cc3)c3c(C)nccc32)C1 [Example 78, (R)-1-(3-(3-(4-(2-fluoro-3-methoxyphenoxy)phenyl)-4-methyl-1H-pyrazolo[4,3-c]pyridin-1-yl)piperidin-1-yl)prop-2-en-1-one] | 50 nM | –
9 | COc1cccc(Oc2ccc(-c3nn([C@@H]4CCCN(C(=O)/C(C#N)=C/C(C)(C)C)C4)c4c(OC)cncc34)cc2)c1F [Example 90, (R,E)-2-(3-(3-(4-(2-fluoro-3-methoxyphenoxy)phenyl)-7-methoxy-1H-pyrazolo[4,3-c]pyridin-1-yl)piperidine-1-carbonyl)-4,4-dimethylpent-2-enenitrile] | – | IC50 (BTK [3]): 10 to 100 nM
10 | C=CC(=O)N1CCCC1Cn1nc(-c2ccc(Oc3cccc(OC)c3F)cc2)c2cncc(OC)c21 (centres unmarked) [Example 91, 1-(2-((3-(4-(2-fluoro-3-methoxyphenoxy)phenyl)-7-methoxy-1H-pyrazolo[4,3-c]pyridin-1-yl)methyl)pyrrolidin-1-yl)prop-2-en-1-one] | – | Btk occupancy in vivo (Btk [1]; 5 mg/kg single oral dose): full occupancy

Second part, led by results:

Row | concentration sufficient to fully occupy the active site of Btk (BTK [2]) | Structure (SMILES) | also measured
11 | 100 nM | C=CC(=O)N1CC[C@@H](n2nc(-c3ccc(Oc4cccc(OC)c4Cl)cc3)c3cncc(OC)c32)C1 [Example 69, (R)-1-(3-(3-(4-(2-chloro-3-methoxyphenoxy)phenyl)-7-methoxy-1H-pyrazolo[4,3-c]pyridin-1-yl)pyrrolidin-1-yl)prop-2-en-1-one] | –
12 | 100 nM | C=CC(=O)N1CCC[C@@H](n2nc(-c3ccc(Oc4cccc(OC)c4F)cc3)c3cnccc32)C1 [Example 71, (R)-1-(3-(3-(4-(2-fluoro-3-methoxyphenoxy)phenyl)-1H-pyrazolo[4,3-c]pyridin-1-yl)piperidin-1-yl)prop-2-en-1-one] | Btk occupancy in vivo (Btk [1]; 10 mg/kg single oral dose): full occupancy
13 | 100 nM | C=CC(=O)N1CCC[C@@H](n2nc(-c3ccc(Oc4cccc(OC)c4F)cc3)c3cncc(OCC)c32)C1 [Example 73, (R)-1-(3-(7-ethoxy-3-(4-(2-fluoro-3-methoxyphenoxy)phenyl)-1H-pyrazolo[4,3-c]pyridin-1-yl)piperidin-1-yl)prop-2-en-1-one] | Btk occupancy in vivo (Btk [1]; 5 mg/kg single oral dose): full occupancy
14 | 25 nM | C=CC(=O)N1CCC[C@@H](n2nc(-c3ccc(Oc4cccc(OC)c4F)cc3)c3cncc(OCCC)c32)C1 [Example 77, (R)-1-(3-(3-(4-(2-fluoro-3-methoxyphenoxy)phenyl)-7-propoxy-1H-pyrazolo[4,3-c]pyridin-1-yl)piperidin-1-yl)prop-2-en-1-one] | –
15 | 50 nM | C=CC(=O)N1CC[C@@H](n2nc(-c3ccc(Oc4cccc(OC)c4F)cc3)c3cncc(OC)c32)C1 [Example 79, (R)-1-(3-(3-(4-(2-fluoro-3-methoxyphenoxy)phenyl)-7-methoxy-1H-pyrazolo[4,3-c]pyridin-1-yl)pyrrolidin-1-yl)prop-2-en-1-one] | –
16 | 50 nM | C=CC(=O)N1CC[C@@H](n2nc(-c3ccc(Oc4cccc(OC)c4F)cc3)c3cncc(OCC)c32)C1 [Example 80, (R)-1-(3-(7-ethoxy-3-(4-(2-fluoro-3-methoxyphenoxy)phenyl)-1H-pyrazolo[4,3-c]pyridin-1-yl)pyrrolidin-1-yl)prop-2-en-1-one] | –
17 | 100 nM | C=CC(=O)N1CCC[C@@H](n2nc(-c3ccc(Oc4cccc(OC)c4F)cc3)c3cncc(OCCO)c32)C1 [Example 98, (R)-1-(3-(3-(4-(2-fluoro-3-methoxyphenoxy)phenyl)-7-(2-hydroxyethoxy)-1H-pyrazolo[4,3-c]pyridin-1-yl)piperidin-1-yl)prop-2-en-1-one] | –
18 | 100 nM | C=CC(=O)N1CCC[C@@H](n2nc(-c3ccc(Oc4cccc(OC)c4F)cc3)c3cncc(OC4CCOC4)c32)C1 (stereo partly drawn) [Example 99, 1-((3R)-3-(3-(4-(2-fluoro-3-methoxyphenoxy)phenyl)-7-((tetrahydrofuran-3-yl)oxy)-1H-pyrazolo[4,3-c]pyridin-1-yl)piperidin-1-yl)prop-2-en-1-one] | –
